# Assay results taken from patent US11427783B2, “Perfuming compositions” (Firmenich SA, priority 2016, dated 2022).
# Read-outs that look alike come from different tables or passages of the source.
# Assays:
# [1] = Volatility of perfuming compounds in air; format: physicochemical
# [2] = Log P (n-octanol/water) of perfuming compounds
# [3] = Table 8, perfuming compounds having a sweet note
# [4] = Table 9, perfuming compounds having a gourmand note
# [5] = Table 10, perfuming compounds having a woody note
# [6] = Table 6, perfuming compounds having a fruity note
# [7] = perfuming compounds having a fruity note (Table 6)
# [8] = n-octanol/water, perfuming compounds having a fruity note (Table 6)
# [9] = Table 5, perfuming compounds having a green note
molecule,measurement,setting,value
CC/C=C\CC1=C(C)CCC1=O,Volatility (μg/l air),[1]; [3],56.72 μg/l air
same,Volatility (μg/l air),[1]; [4],56.72 μg/l air
same,Log P (n-octanol/water),[2]; [4],2.61
same,logP,physchem; n-octanol/water,2.61
CC(=O)CCC1=C(C)CCCC1(C)C,Volatility (μg/l air),[1]; [3],63.61 μg/l air
same,Volatility (μg/l air),[1]; [5],63.61 μg/l air
same,Log P (n-octanol/water),[2]; [5],3.99
same,logP,physchem; n-octanol/water,3.99
COc1cc(C=O)ccc1OC(=O)C(C)C,Volatility (μg/l air),[1]; [6],1.01 μg/l air
same,Volatility (μg/l air),[1]; [3],1.01 μg/l air
same,Volatility (μg/l air),[1]; [4],1.01 μg/l air
same,Log P (n-octanol/water),[2]; [3],1.90
same,Log P (n-octanol/water),[2]; [4],1.90
same,logP,physchem; n-octanol/water,1.9
C/C=C/C(=O)C1=C(C)CCCC1(C)C,Volatility (μg/l air),[1]; [6],81.66 μg/l air
same,Volatility (μg/l air),[1]; [5],81.66 μg/l air
same,Log P (n-octanol/water),[2]; [5],3.63
same,logP,physchem; n-octanol/water,3.63
CC1(C)[C@@H]2CC[C@@]1(C)C(=O)C2,Volatility,[1]; [7],555.04 μg/l air
same,Log P (n-octanol/water),[2]; [8],2.50
CC1(C)C2C[C@H]3CCC(=O)C=C3[C@@H]1C2,Volatility (μg/l air),[1]; [5],4.86 μg/l air
same,Log P (n-octanol/water),[2]; [5],3.00
CCCC(C)=CCOC(C)=O (mixture of isomers),Volatility,[1]; [9],4131.05 μg/l air
same,Volatility,[1]; [7],4131.05 μg/l air
same,Log P (n-octanol/water),[2]; [9],3.11
same,Log P (n-octanol/water),[2]; [8],3.11
CC(=O)OCC=C(C)CCC=C(C)C (mixture of isomers) [GERANYL ACETATE (A) + NERYL ACETATE (B)],Volatility,[1]; [9],85.23 μg/l air
same,Log P (n-octanol/water),[2]; [9],3.99
CC1CCC2(O1)C(C)(C)CCCC2(C)O (racemic),Volatility (μg/l air),[1]; [5],84.04 μg/l air
same,Log P (n-octanol/water),[2]; [5],3.51
CC1CC(C)(c2ccccc2)CO1 (racemic),Log P (n-octanol/water),[2]; [8],3.02
same,logP,physchem; n-octanol/water,3.02
CC1=C[C@H](C)[C@H]2[C@H](CCC(C)(C)[C@H]2O)C1 (racemic),Log P (n-octanol/water),[2]; [6],5.24
same,logP,physchem; n-octanol/water,5.24
CC(=O)C=CC1C(C)CCC(C)C1(C)C (racemic),Volatility (μg/l air),[1]; [5],20.50 μg/l air
same,Log P (n-octanol/water),[2]; [5],4.62
C=C(C)CC(C(C)=O)C(=O)OCC (racemic),Log P (n-octanol/water),[2]; [8],2.15
same,logP,physchem; n-octanol/water,2.15
"CC(=O)OC(c1ccccc1)C(Cl)(Cl)Cl (racemic) [(+−)-2,2,2-TRICHLORO-1-PHENYLETHYL ACETATE]",Log P (n-octanol/water),[2],3.20
same,logP,physchem; n-octanol/water,3.2
CCCC(S)CCOC(C)=O (racemic) [(+−)-3-mercaptohexyl acetate],Log P (n-octanol/water),[2]; [8],2.64
same,logP,physchem; n-octanol/water,2.64
CC1CCC(=O)O1 (racemic) [(+−)-4-PENTANOLIDE],Log P (n-octanol/water),"[2]; Table 7, citrus note",−0.12
same,logP,physchem,-0.12
CCCC1CCCC(=O)O1 (racemic) [(+−)-6-propyltetrahydro-2H-pyran-2-one],Log P (n-octanol/water),"[2]; Table 7, citrus note",1.47
same,logP,physchem; n-octanol/water,1.47
COC1(C)CCC23CC1C(C)(C)C2CCC3C (racemic) [(+−)-8-methoxycedrane],Volatility (μg/l air),[1]; [5],42.22 μg/l air
same,Log P (n-octanol/water),[2]; [5],7.59
CCOC(=O)C(C)CC (racemic) [(+−)-ethyl 2-methylbutanoate],Log P (n-octanol/water),[2]; [8],2.58
same,logP,physchem; n-octanol/water,2.58
"CCCCCC1C(=O)CCC1CC(=O)OC (single isomer, unassigned; (+))",Volatility (μg/l air),[1]; [5],1.71 μg/l air
same,Log P (n-octanol/water),[2]; [5],2.95
"CC(=O)OC(C)CCC=C(C)CCC=C(C)C (stereo not shown) [1,5,9-TRIMETHYL-4,8-DECADIENYL ACETATE]",Log P (n-octanol/water),[2]; [6],5.28
same,logP,physchem; n-octanol/water,5.28
"C=CCCC(=O)C1=CCCC(C)(C)C1 [1-(5,5-dimethyl-1-cyclohexen-1-yl)-4-penten-1-one]",Log P (n-octanol/water),[2]; [6],3.89
same,logP,physchem; n-octanol/water,3.89
O=C(Cc1ccccc1)OCCc1ccccc1 [2-PHENYLETHYL PHENYLACETATE],Log P (n-octanol/water),"[2]; Table 7, citrus note",3.59
same,Log P (n-octanol/water),[2]; [3],3.59
same,Log P (n-octanol/water),[2]; [4],3.59
same,logP,physchem,3.59
CC(C)C(=O)OCCOc1ccccc1 [2-phenoxyethyl 2-methylpropanoate],Log P (n-octanol/water),[2]; [6],2.82
same,logP,physchem; n-octanol/water,2.82
CC(=O)OCC=C(C)C [3-methyl-2-buten-1-yl acetate],Log P (n-octanol/water),[2]; [8],2.19
same,logP,physchem; n-octanol/water,2.19
CC(C)(O)CCC1CCCCC1 [4-CYCLOHEXYL-2-METHYL-2-BUTANOL],Log P (n-octanol/water),"[2]; Table 7, citrus note",3.93
same,logP,physchem; n-octanol/water,3.93
C=CCCCCCCCCO [9-DECEN-1-OL],Log P (n-octanol/water),"[2]; Table 7, citrus note",3.70
same,logP,physchem; n-octanol/water,3.7
CCCCCC/C(C=O)=C\c1ccccc1 [(2E)-2-benzylideneoctanal],Log P (n-octanol/water),[2]; [6],4.86
same,logP,physchem; n-octanol/water,4.86
"CC(=O)OC/C=C(/C)CCC=C(C)C [(2Z)-3,7-dimethyl-2,6-octadien-1-yl acetate]",Log P (n-octanol/water),[2]; [6],3.81
same,logP,physchem; n-octanol/water,3.81
CC/C=C\CCOC(=O)C/C=C\CC [(3Z)-3-hexen-1-yl (3Z)-3-hexenoate],Log P (n-octanol/water),[2]; [3],4.22
same,Log P (n-octanol/water),[2]; [4],4.22
same,Log P (n-octanol/water),[2]; [8],4.22
same,logP,physchem; n-octanol/water,4.22
CC/C=C\CCOC(=O)c1ccccc1 [(3Z)-3-hexen-1-yl benzoate],Log P (n-octanol/water),[2]; [6],4.21
same,Log P (n-octanol/water),"[2]; Table 7, citrus note",4.21
same,logP,physchem; n-octanol/water,4.21
CC/C=C\CCOC(=O)CCC [(3Z)-3-hexen-1-yl butyrate],Log P (n-octanol/water),[2]; [8],3.59
same,logP,physchem; n-octanol/water,3.59
CC/C=C\CCOC(=O)OC [(3Z)-hex-3-en-1-yl methyl carbonate],Log P (n-octanol/water),[2]; [8],2.97
same,logP,physchem; n-octanol/water,2.97
O=C1CCCCCCC/C=C/CCCCCCO1 [(10E)-oxacycloheptadec-10-en-2-one],Log P (n-octanol/water),"[2]; Table 7, citrus note",6.15
same,logP,physchem; n-octanol/water,6.15
C/C=C/c1ccc(OC(C)=O)c(OC)c1 [(E)-2-METHOXY-4-(1-PROPENYL)PHENYL ACETATE],Log P (n-octanol/water),"[2]; Table 7, citrus note",2.56
same,logP,physchem; n-octanol/water,2.56
CCCCC/C(C=O)=C\c1ccccc1 [(E)-2-PENTYL-3-PHENYL-2-PROPENAL],Log P (n-octanol/water),"[2]; Table 7, citrus note",4.30
same,logP,physchem; n-octanol/water,4.3
O=Cc1ccccc1 [BENZALDEHYDE],Log P (n-octanol/water),[2]; [3],1.33
same,logP,physchem,1.33
O=C(OCc1ccccc1)c1ccccc1 [BENZYL BENZOATE],Log P (n-octanol/water),"[2]; Table 7, citrus note",3.64
same,logP,physchem; n-octanol/water,3.64
CCC(=O)OCc1ccccc1 [BENZYL PROPANOATE],Log P (n-octanol/water),[2]; [6],2.35
same,logP,physchem; n-octanol/water,2.35
CCCCSCCCC [DIBUTYL SULFIDE],Volatility,[1]; [9],2766.10 μg/l air
same,logP,physchem; n-octanol/water,4.86
CCCC(=O)OCC [ETHYL BUTANOATE],Log P (n-octanol/water),[2]; [8],2.03
same,logP,physchem; n-octanol/water,2.03
CCCCCC(=O)OCC [ETHYL HEXANOATE],Log P (n-octanol/water),[2]; [3],3.12
same,Log P (n-octanol/water),[2]; [4],3.12
same,Log P (n-octanol/water),[2]; [8],3.12
same,logP,physchem; n-octanol/water,3.12
CCCCCCC=O [HEPTANAL],Volatility,[1]; [9],22184.00 μg/l air
same,logP,physchem; n-octanol/water,2.15
CCCCCCOC(=O)c1ccccc1O [HEXYL 2-HYDROXYBENZOATE],Log P (n-octanol/water),[2]; [6],5.55
same,Log P (n-octanol/water),"[2]; Table 7, citrus note",5.55
same,logP,physchem; n-octanol/water,5.55
CCCCCCOC(C)=O [HEXYL ACETATE],Log P (n-octanol/water),[2]; [8],3.09
same,logP,physchem; n-octanol/water,3.09
CCCCCCOC(=O)CCCCC [HEXYL HEXANOATE],Volatility (μg/l air),[1]; [6],105.52 μg/l air
same,logP,physchem; n-octanol/water,5.56
CCCCCC(=O)OC [METHYL HEXANOATE],Log P (n-octanol/water),[2]; [8],2.65
same,logP,physchem; n-octanol/water,2.65
CCCCCCCC=O [OCTANAL],Volatility,[1]; [9],4147.61 μg/l air
same,logP,physchem; n-octanol/water,2.94
CCC(C)c1nccnc1OC (stereo not shown) [PYRAZOBUTYLE],Volatility,[1]; [9],1617.21 μg/l air
same,Log P (n-octanol/water),[2]; [9],2.88
"O=Cc1ccc2c(c1)OCO2 [benzo[d][1,3]dioxole-5-carbaldehyde]",Volatility (μg/l air),[1]; [4],61.82 μg/l air
same,logP,physchem,1.52
"CCCCC/C=C\C=C\C(=O)OCC [ethyl (2E,4Z)-2,4-decadienoate]",Log P (n-octanol/water),[2]; [6],4.69
same,logP,physchem; n-octanol/water,4.69
CCCCCCCC(=O)OCC [ethyl octanoate],Volatility,[1]; [9],800.05 μg/l air
same,logP,physchem; n-octanol/water,4.2
CCCCCCOC(=O)C(C)C [hexyl 2-methylpropanoate],Log P (n-octanol/water),[2]; [8],4.31
same,logP,physchem; n-octanol/water,4.31
C/C=C(\C)C(=O)OCCCCCC [hexyl (2E)-2-methyl-2-butenoate],Log P (n-octanol/water),[2]; [3],4.80
same,Log P (n-octanol/water),[2]; [8],4.80
same,logP,physchem; n-octanol/water,4.8
CCCCCC/C=C/C(=O)OC [methyl (2E)-2-nonenoate],Log P (n-octanol/water),[2]; [8],4.05
same,logP,physchem; n-octanol/water,4.05
"(2,2-DIMETHOXYETHYL)BENZENE",Volatility,[1]; [9],456.97 μg/l air
same,Log P (n-octanol/water),[2]; [9],2.10
